From ChEMBL document CHEMBL4390673, “Identification of Novel Coumestan Derivatives as Polyketide Synthase 13 Inhibitors against Mycobacterium tuberculosis. Part II” (J Med Chem, 2019)
Converted amounts (≈) assume the structure as drawn. The source made the active and inactive calls. No cut-off for these calls is given here.

Columns and labels:
in vitro [1] = settings: human, liver microsomes
Description: Stability in human liver microsomes assessed as parent compound remaining measured after 60 mins

in vitro [2] = settings: human, liver microsomes; remark: listed apart in the source
Description: Intrinsic clearance in human liver measured from intrinsic clearance in human liver microsomes

[3] = test system: Mycobacterium tuberculosis; assay: Antitubercular activity against Mycobacterium tuberculosis H37Rv exposed to serially diluted serum from 100 mg/kg, po treated BALB/c mouse assessed as reduction in bacterial growth measured after 7 days by microplate alamar blue assay; type: functional, organism-based
Escherichia coli [4] = assay: Growth inhibition of Escherichia coli DH5[alpha]; type: organism-based; settings: in vivo
[5] = Selectivity index, ratio of IC50 for African green monkey Vero cells to MIC=; type: toxicity; settings: read-out: Ratio IC50
[6] = Cytotoxicity against human QSG7701 cells measured after 48 hrs by CellTiter 96 AQueous One Solution Cell Proliferation assay; type: cell-based; settings: QSG7701, 48 h
Vero = assay: Cytotoxicity against African green monkey Vero cells by microplate alamar blue assay; type: cell-based; settings: Chlorocebus sabaeus
HEK293 = assay: Cytotoxicity against HEK293 cells measured after 48 hrs by CellTiter 96 AQueous One Solution Cell Proliferation assay; type: cell-based; settings: Homo sapiens, HEK293, 48 h
Bacillus subtilis = assay: Growth inhibition of Bacillus subtilis 168; type: organism-based, subsp. subtilis str. 168
HFL1 = assay: Cytotoxicity against HFL1 cells measured after 48 hrs by CellTiter 96 AQueous One Solution Cell Proliferation assay; type: cell-based; settings: Homo sapiens, HFL1, 48 h
[7] = test system: Mycobacterium tuberculosis; assay: Antitubercular activity against Mycobacterium tuberculosis H37Rv exposed to 1:1024 diluted serum from 50 mg/kg, po treated BALB/c mouse assessed as reduction in bacterial growth measured after 7 days by microplate alamar blue assay; type: functional, organism-based
MRC5 = assay: Cytotoxicity against human MRC5 cells measured after 48 hrs by CellTiter 96 AQueous One Solution Cell Proliferation assay; type: cell-based; settings: MRC5, 48 h
Escherichia coli [8] = assay: Growth inhibition of Escherichia coli AB1157; type: organism-based; settings: in vivo
[9] = test system: Mycobacterium tuberculosis; assay: Antitubercular activity against Mycobacterium tuberculosis H37Rv measured after 7 days by alamar blue assay; type: functional; settings: 168 h
in vitro [10] = settings: human, liver microsomes; remark: listed apart in the source
Description: Half life in human liver microsomes

in vitro [11] = settings: human, liver microsomes; remark: listed apart in the source
Description: Intrinsic clearance in human liver microsomes

[12] = test system: Mycobacterium tuberculosis; assay: Antitubercular activity against Mycobacterium tuberculosis H37Rv by microdilution method; type: functional
[13] = test system: Mycobacterium tuberculosis; assay: Antitubercular activity against Mycobacterium tuberculosis H37Rv after 6 days by resazurin dye based fluorescence assay; settings: 144 h
Staphylococcus aureus = assay: Growth inhibition of Staphylococcus aureus Newman; type: organism-based; settings: in vivo
[14] = test system: Mycobacterium tuberculosis; assay: Bactericidal activity against Mycobacterium tuberculosis H37Rv assessed as reduction in colony forming units incubated for 14 days followed by replating on 7H11 agar plates and measured by broth dilution method; type: functional
[15] = test system: Mycobacterium tuberculosis; assay: Antitubercular activity against Mycobacterium tuberculosis H37Rv exposed to serially diluted serum from 10 mg/kg, po treated BALB/c mouse assessed as reduction in bacterial growth measured after 7 days by microplate alamar blue assay; type: functional, organism-based
[16] = test system: Mycobacterium tuberculosis; assay: Antitubercular activity against Mycobacterium tuberculosis H37Rv measured after 7 days under aerobic condition by resazurin dye based assay; type: functional; settings: 168 h
[17] = test system: Mycobacterium tuberculosis; assay: Antitubercular activity against Mycobacterium tuberculosis H37Rv; type: functional

Compound `CCOC(=O)c1c(-c2ccc(O)cc2)oc2ccc(O)c(CN3CCCCC3)c12` has a remaining at 1 h (in vitro [1]) of 10.8% and a CLint scaled (in vitro [2]) of 66.3 mL/min/kg.

In the case of `CC(C)(C)c1cc(O)c(CN2CCCCC2)c2c1oc1c3ccc(O)cc3oc(=O)c12`, the Activity [3] is reported as “Active”, the MIC (Escherichia coli [4]) is reported as > 25 µg/mL and the selectivity ratio [5] is reported as 2048. It also gave an IC50 [6] of 34.1 µM, an IC50 (Vero) of 8 µg/mL (≈ 19 µM) and an IC50 (HEK293) of 33.6 µM. For the same compound, the MIC (Bacillus subtilis) was > 25 µg/mL, the IC50 (HFL1) was 22.3 µM and the Activity [7] was “inactive”. The IC50 (MRC5) was 30.6 µM and the MIC (Escherichia coli [8]) was > 25 µg/mL.

For `CCOC(=O)C1=C(NC(=O)c2c(F)c(F)c(F)c(F)c2F)SC2CN(CC)CCC12` (centres undefined), the MIC [9] was 0.23 µM (≈ 0.104 µg/mL).

`O=c1oc2ccccc2c2oc3ccc(O)c(CN4CCCCC4)c3c12` showed a half-life (in vitro [10]) of 21.4 min, a remaining at 1 h (in vitro [1]) of 14.5% and a CLint scaled (in vitro [11]) of 64.9 mL/min/kg. It also gave a CLint scaled (in vitro [2]) of 58.4 mL/min/kg.

`CC1CCN(Cc2c(O)ccc3oc4c5ccccc5oc(=O)c4c23)CC1` showed a selectivity ratio [5] of 32 and an IC50 (Vero) of 16 µg/mL (≈ 44 µM).

For `CN(C)[C@@H]1C(O)=C(C(N)=O)C(=O)[C@@]2(O)C(O)=C3C(=O)c4c(O)cccc4[C@@](C)(O)[C@H]3C[C@@H]12` [TETRACYCLINE], the MIC (Bacillus subtilis) was > 25 µg/mL.

`C[C@]12CC[C@H]3[C@@H](CCC4=CC(=O)CC[C@@]43C)[C@@H]1CC[C@@H]2O` [TESTOSTERONE] gave a remaining at 1 h (in vitro [1]) of 12.5% and a CLint scaled (in vitro [2]) of 62.8 mL/min/kg.

`O=C(O)Cc1ccccc1Nc1c(Cl)cccc1Cl` [DICLOFENAC] showed a half-life (in vitro [10]) of 11.9 min and a CLint scaled (in vitro [2]) of 105 mL/min/kg.

Compound `CCOC(=O)c1c(NC(=O)c2c(F)c(F)c(F)c(F)c2F)sc(C(N)=O)c1C` has an MIC [12] of 0.5 µM (≈ 0.211 µg/mL).

In the case of `CC(C)(C)c1cc(O)c(CN2CCCCC2)c2c1oc1c3cc(O)ccc3oc(=O)c12`, the selectivity ratio [5] is reported as 64 and the IC50 (Vero) is reported as 8 µg/mL (≈ 19 µM).

For `CNC(=O)c1c(-c2ccc(O)cc2)oc2ccc(O)c(CN3CCCCC3)c12`, the Activity [3] was “Active” and the MIC [13] was 0.0313 µg/mL (≈ 0.0823 µM).

Compound `Cc1cc(O)c(CN2CCCCC2)c2c1oc1c3ccccc3oc(=O)c12` has a selectivity ratio [5] of 64 and an IC50 (Vero) of 8 µg/mL (≈ 22 µM).

In the case of `O=c1oc2cc(O)ccc2c2oc3ccc(O)c(CN4CCCCC4)c3c12`, the MIC (Staphylococcus aureus) is reported as > 25 µg/mL, the MIC (Escherichia coli [4]) is reported as > 25 µg/mL and the MBC99 [14] is reported as 0.0039 to 0.0078 µg/mL. For the same compound, the selectivity ratio [5] was 1024, the IC50 [6] was 40.1 µM and the remaining at 1 h (in vitro [1]) was 73.6%. For the same compound, the IC50 (Vero) was 4 µg/mL (≈ 10.9 µM), the IC50 (HEK293) was > 50 µM and the MIC (Bacillus subtilis) was > 25 µg/mL. The IC50 (HFL1) was > 50 µM, the Activity [7] was “Active” and the IC50 (MRC5) was > 50 µM. The MIC (Escherichia coli [8]) was > 25 µg/mL.

For `NNC(=O)c1ccncc1`, the Activity [15] was “Active”.

For `CC1CCCCN1Cc1c(O)ccc2oc3c4ccccc4oc(=O)c3c12` (centres undefined), the selectivity ratio [5] was 16 and the IC50 (Vero) was 16 µg/mL (≈ 44 µM).

In the case of `CCOC(=O)c1c(-c2ccccc2)oc2ccc(O)c(CN3CCCCC3)c12`, the half-life (in vitro [10]) is reported as 53 min, the remaining at 1 h (in vitro [1]) is reported as 46.6% and the CLint scaled (in vitro [11]) is reported as 26.2 mL/min/kg. For the same compound, the CLint scaled (in vitro [2]) was 23.6 mL/min/kg.

Compound `O=c1oc2ccc(O)cc2c2oc3ccc(O)c(CN4CCCCC4)c3c12` has a selectivity ratio [5] of 8 and an IC50 (Vero) of 4 µg/mL (≈ 10.9 µM).

With `O=c1oc2ccccc2c2oc3ccc(O)c(CN4CCCC4)c3c12` the selectivity ratio [5] was 16 and the IC50 (Vero) was 8 µg/mL (≈ 23.9 µM).

In the case of `CN[C@H](CC(C)C)C(=O)N[C@H]1C(=O)N[C@@H](CC(N)=O)C(=O)N[C@H]2C(=O)N[C@H]3C(=O)N[C@H](C(=O)N[C@H](C(=O)O)c4cc(O)cc(O)c4-c4cc3ccc4O)[C@H](O)c3ccc(c(Cl)c3)Oc3cc2cc(c3O[C@@H]2O[C@H](CO)[C@@H](O)[C@H](O)[C@H]2O[C@H]2C[C@](C)(N)[C@H](O)[C@H](C)O2)Oc2ccc(cc2Cl)[C@H]1O` [VANCOMYCIN], the MIC (Escherichia coli [4]) is reported as > 25 µg/mL, the MIC (Bacillus subtilis) is reported as > 25 µg/mL and the MIC (Escherichia coli [8]) is reported as > 25 µg/mL.

In the case of `C=CCCCCCCC[C@H]1C(=O)O[C@@H]1CCCCCNC(=O)c1ccc(N(C)C)cc1`, the MIC [16] is reported as 0.68 µg/mL (≈ 1.59 µM).

Work on `COC(=O)c1c(NC(=O)c2c(F)c(F)c(F)c(F)c2F)sc2c1CCCCC2` yielded an MIC [12] of 1 µM (≈ 0.419 µg/mL).

With `CCOC(=O)c1c(-c2ccccc2)oc2ccc(O)c(CN3CCC(C)CC3)c12` the MIC [17] was 1 µg/mL (≈ 2.54 µM).

For `CC(C)(C)c1cc(O)c(CN2CCCCC2)c2c1oc1c3ccccc3oc(=O)c12`, the selectivity ratio [5] was 128 to 256 and the IC50 (Vero) was 16 µg/mL (≈ 39.5 µM).
